{
  "source": "patent US10399940B2",
  "about": "“Substituted pyrrolidines and methods of use” (AbbVie S.à.r.l., priority 2016, dated 2019)",
  "target": "T1, F508delCFTR (Homo sapiens, UniProt P13569, DEL508-508)",
  "T1 construct": "expressed in transfected cells; host or cells: CFBE41o- (human lung derived epithelial cell line), doxycycline-inducible expression",
  "T1 sequence (P13569 with tags, fused parts or gaps DEL508-508)": "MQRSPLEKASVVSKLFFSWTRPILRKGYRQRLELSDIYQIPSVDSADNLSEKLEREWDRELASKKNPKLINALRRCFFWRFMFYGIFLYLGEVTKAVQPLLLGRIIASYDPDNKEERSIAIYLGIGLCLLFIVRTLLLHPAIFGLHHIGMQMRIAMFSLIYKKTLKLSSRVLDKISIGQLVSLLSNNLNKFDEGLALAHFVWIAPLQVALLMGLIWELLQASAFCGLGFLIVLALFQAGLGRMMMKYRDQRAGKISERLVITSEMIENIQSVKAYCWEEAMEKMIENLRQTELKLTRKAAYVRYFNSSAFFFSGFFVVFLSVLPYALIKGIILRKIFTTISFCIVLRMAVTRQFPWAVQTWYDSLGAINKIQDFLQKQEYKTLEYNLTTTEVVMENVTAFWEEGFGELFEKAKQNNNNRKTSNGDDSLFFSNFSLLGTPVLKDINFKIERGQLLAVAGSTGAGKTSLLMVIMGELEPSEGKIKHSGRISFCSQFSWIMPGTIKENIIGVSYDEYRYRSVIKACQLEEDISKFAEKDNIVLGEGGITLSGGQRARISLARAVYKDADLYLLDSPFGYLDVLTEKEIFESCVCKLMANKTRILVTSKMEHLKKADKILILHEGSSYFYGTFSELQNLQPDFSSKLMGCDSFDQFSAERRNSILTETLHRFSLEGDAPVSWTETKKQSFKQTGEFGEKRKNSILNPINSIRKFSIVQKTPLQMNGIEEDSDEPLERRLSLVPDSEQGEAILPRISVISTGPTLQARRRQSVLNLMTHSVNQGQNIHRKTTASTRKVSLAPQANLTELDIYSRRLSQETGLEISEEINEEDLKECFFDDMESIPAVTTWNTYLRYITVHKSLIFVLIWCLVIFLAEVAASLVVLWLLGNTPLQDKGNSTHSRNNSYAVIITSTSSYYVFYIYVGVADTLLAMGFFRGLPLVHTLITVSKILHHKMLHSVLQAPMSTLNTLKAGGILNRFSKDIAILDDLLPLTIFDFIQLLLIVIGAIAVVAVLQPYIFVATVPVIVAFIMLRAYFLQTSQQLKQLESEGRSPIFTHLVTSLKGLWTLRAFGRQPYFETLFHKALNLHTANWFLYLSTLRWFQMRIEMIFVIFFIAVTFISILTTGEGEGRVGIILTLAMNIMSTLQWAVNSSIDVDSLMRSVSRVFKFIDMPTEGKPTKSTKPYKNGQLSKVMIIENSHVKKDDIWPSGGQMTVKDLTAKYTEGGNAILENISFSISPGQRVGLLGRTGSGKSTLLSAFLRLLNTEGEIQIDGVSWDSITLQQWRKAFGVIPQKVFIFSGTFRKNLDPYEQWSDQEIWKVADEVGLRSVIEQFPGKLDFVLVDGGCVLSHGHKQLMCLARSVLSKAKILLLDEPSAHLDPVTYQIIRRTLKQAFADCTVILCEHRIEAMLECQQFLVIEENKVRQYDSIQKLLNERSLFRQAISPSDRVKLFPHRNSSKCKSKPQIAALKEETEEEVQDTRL",
  "assay": "Cell Surface Expression-Horse Radish Peroxidase (CSE-HRP) assay",
  "format": "cell-based",
  "details": "CFBE41o-F508delCFTR-HRP cells; for Maximum % activity (with co-corrector): with co-corrector (2 μM); for Maximum % activity (with co-corrector) / Maximum % activity (without co-corrector): normalized to on-plate positive control, highest concentration 20 μM",
  "in_short": "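Surface F508delCFTR-HRP was read by luminol luminescence after 18–24 h compound exposure at 33 °C, without or with 2 μM co-corrector. Doses were eight 3-fold steps from 20 μM, in doxycycline-induced (0.5 μg/mL, 72 h) CFBE41o- cells. % activity was scaled to the on-plate 2 μM positive control minus DMSO; EC50 came from a variable-slope sigmoid fit.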",
  "key": {"[1]": {"details": "test compound without co-corrector, 18-24 hours at 33° C., read-out: EC50 (without co-corrector)"}, "[2]": {"details": "with co-corrector (2 μM of 3-[(2R,4R)-4-({[1-(2,2-difluoro-1,3-benzodioxol-5-yl)cyclopropyl]carbonyl}amino)-7-methoxy-3,4-dihydro-2H-chromen-2-yl]benzoic acid), read-out: EC50 (with co-corrector)"}},
  "note": "Read-outs that look alike come from different tables or passages of the source.",
  "data": [
    {"molecule": "COc1ncc(C(F)(F)F)cc1CO[C@@H]1[C@H](C(C)(C)C)[C@@H](C(=O)O)N(C(=O)[C@@H]2CCCO2)[C@H]1c1ccccc1Br", "note": "[Example 126, (2S,3R,4R,5S)-5-(2-bromophenyl)-3-tert-butyl-4-{[2-methoxy-5-(trifluoromethyl)pyridin-3-yl]methoxy}-1-[(2S)-oxolane-2-carbonyl]pyrrolidine-2-carboxylic acid]", "values": [
      {"measurement": "EC50", "setting": "[1]", "result": "> 10", "unit": "µM"},
      {"measurement": "EC50", "setting": "[2]", "result": "> 10", "unit": "µM"},
      {"measurement": "Maximum % activity (with co-corrector)", "result": "+ (<150)"},
      {"measurement": "Maximum % activity (without co-corrector)", "result": "+ (<100)"}
    ]},
    {"molecule": "COc1ncc(C(F)(F)F)cc1CO[C@H]1[C@H](C(C)(C)C)[C@@H](C(=O)O)N(C(=O)[C@@H]2CCCO2)[C@H]1c1ccnn1C(C)C", "note": "[Example 127, (2S,3R,4S,5S)-3-tert-butyl-4-{[2-methoxy-5-(trifluoromethyl)pyridin-3-yl]methoxy}-1-[(2S)-oxolane-2-carbonyl]-5-[1-(propan-2-yl)-1H-pyrazol-5-yl]pyrrolidine-2-carboxylic acid]", "values": [
      {"measurement": "EC50", "setting": "[1]", "result": "> 10", "unit": "µM"},
      {"measurement": "EC50", "setting": "[2]", "result": "> 10", "unit": "µM"},
      {"measurement": "Maximum % activity (with co-corrector)", "result": "+ (<150)"},
      {"measurement": "Maximum % activity (without co-corrector)", "result": "+ (<100)"}
    ]},
    {"molecule": "COc1ncc(C(F)(F)F)cc1CO[C@H]1[C@H](C(C)(C)C)[C@@H](C(=O)O)N(C(=O)[C@@H]2CCCCO2)[C@H]1c1ccccc1C1CC1", "note": "[Example 128, (2S,3R,4S,5S)-3-tert-butyl-5-(2-cyclopropylphenyl)-4-{[2-methoxy-5-(trifluoromethyl)pyridin-3-yl]methoxy}-1-[(2S)-oxane-2-carbonyl]pyrrolidine-2-carboxylic acid]", "values": [
      {"measurement": "EC50", "setting": "[1]", "result": "1 to 10", "unit": "µM"},
      {"measurement": "EC50", "setting": "[2]", "result": "< 1", "unit": "µM"},
      {"measurement": "Maximum % activity (with co-corrector)", "result": "+++ (≥350)"},
      {"measurement": "Maximum % activity (without co-corrector)", "result": "++ (≥100 and <200)"}
    ]},
    {"molecule": "COc1ncc(C(F)(F)F)cc1CO[C@H]1[C@H](C(C)(C)C)[C@@H](C(=O)O)N(C(=O)[C@@H]2CCCO2)[C@H]1c1ccccc1C", "note": "[Example 129, (2S,3R,4S,5S)-3-tert-butyl-4-{[2-methoxy-5-(trifluoromethyl)pyridin-3-yl]methoxy}-5-(2-methylphenyl)-1-[(2S)-oxolane-2-carbonyl]pyrrolidine-2-carboxylic acid]", "values": [
      {"measurement": "EC50", "setting": "[1]", "result": "1 to 10", "unit": "µM"},
      {"measurement": "EC50", "setting": "[2]", "result": "< 1", "unit": "µM"},
      {"measurement": "Maximum % activity (with co-corrector)", "result": "+++ (≥350)"},
      {"measurement": "Maximum % activity (without co-corrector)", "result": "++ (≥100 and <200)"}
    ]},
    {"molecule": "COc1ncc(C2CCC2)cc1CO[C@H]1[C@H](C(C)(C)C)[C@@H](C(=O)O)N(C(=O)[C@@H]2CCCO2)[C@H]1c1ccccc1C(C)C", "note": "[Example 130, (2S,3R,4S,5S)-3-tert-butyl-4-[(5-cyclobutyl-2-methoxypyridin-3-yl)methoxy]-1-[(2S)-oxolane-2-carbonyl]-5-[2-(propan-2-yl)phenyl]pyrrolidine-2-carboxylic acid]", "values": [
      {"measurement": "EC50", "setting": "[1]", "result": "< 1", "unit": "µM"},
      {"measurement": "EC50", "setting": "[2]", "result": "< 1", "unit": "µM"},
      {"measurement": "Maximum % activity (with co-corrector)", "result": "+++ (≥350)"},
      {"measurement": "Maximum % activity (without co-corrector)", "result": "++ (≥100 and <200)"}
    ]},
    {"molecule": "COc1nc2ccccc2cc1CO[C@H]1[C@H](C(C)(C)C)[C@@H](C(=O)O)N(C(=O)[C@H]2CCCCO2)[C@H]1c1ccccc1C(C)C", "note": "[Example 131, (2S,3R,4S,5S)-3-tert-butyl-4-[(2-methoxyquinolin-3-yl)methoxy]-1-[(2R)-oxane-2-carbonyl]-5-[2-(propan-2-yl)phenyl]pyrrolidine-2-carboxylic acid]", "values": [
      {"measurement": "EC50", "setting": "[1]", "result": "< 1", "unit": "µM"},
      {"measurement": "EC50", "setting": "[2]", "result": "< 1", "unit": "µM"},
      {"measurement": "Maximum % activity (with co-corrector)", "result": "++ (≥150 and <350)"},
      {"measurement": "Maximum % activity (without co-corrector)", "result": "+ (<100)"}
    ]},
    {"molecule": "COc1nc2ccccc2cc1CO[C@H]1[C@H](C(C)(C)C)[C@@H](C(=O)O)N(C(=O)[C@@H]2CCCCO2)[C@H]1c1ccccc1C(C)C", "note": "[Example 132, (2S,3R,4S,5S)-3-tert-butyl-4-[(2-methoxyquinolin-3-yl)methoxy]-1-[(2S)-oxane-2-carbonyl]-5-[2-(propan-2-yl)phenyl]pyrrolidine-2-carboxylic acid]", "values": [
      {"measurement": "EC50", "setting": "[1]", "result": "1 to 10", "unit": "µM"},
      {"measurement": "EC50", "setting": "[2]", "result": "< 1", "unit": "µM"},
      {"measurement": "Maximum % activity (with co-corrector)", "result": "+++ (≥350)"},
      {"measurement": "Maximum % activity (without co-corrector)", "result": "++ (≥100 and <200)"}
    ]},
    {"molecule": "COc1ncc(C2CCC2)cc1CO[C@H]1[C@H](C(C)(C)C)[C@@H](C(=O)O)N(C(=O)[C@@H]2CCCO2)[C@H]1c1cccnc1OC(C)C", "note": "[Example 133, (2S,3R,4S,5S)-3-tert-butyl-4-[(5-cyclobutyl-2-methoxypyridin-3-yl)methoxy]-1-[(2S)-oxolane-2-carbonyl]-5-{2-[(propan-2-yl)oxy]pyridin-3-yl}pyrrolidine-2-carboxylic acid]", "values": [
      {"measurement": "EC50", "setting": "[1]", "result": "1 to 10", "unit": "µM"},
      {"measurement": "EC50", "setting": "[2]", "result": "1 to 10", "unit": "µM"},
      {"measurement": "Maximum % activity (with co-corrector)", "result": "+++ (≥350)"},
      {"measurement": "Maximum % activity (without co-corrector)", "result": "++ (≥100 and <200)"}
    ]},
    {"molecule": "COc1ncc(C2CCC2)cc1CO[C@H]1[C@H](C(C)(C)C)[C@@H](C(=O)O)N(C(=O)C2CCOCC2)[C@H]1c1cccnc1OC(C)C", "note": "[Example 134, (2S,3R,4S,5S)-3-tert-butyl-4-[(5-cyclobutyl-2-methoxypyridin-3-yl)methoxy]-1-(oxane-4-carbonyl)-5-{2-[(propan-2-yl)oxy]pyridin-3-yl}pyrrolidine-2-carboxylic acid]", "values": [
      {"measurement": "EC50", "setting": "[1]", "result": "1 to 10", "unit": "µM"},
      {"measurement": "EC50", "setting": "[2]", "result": "1 to 10", "unit": "µM"},
      {"measurement": "Maximum % activity (with co-corrector)", "result": "++ (≥150 and <350)"},
      {"measurement": "Maximum % activity (without co-corrector)", "result": "++ (≥100 and <200)"}
    ]},
    {"molecule": "COc1ncc(C2CCC2)cc1CO[C@H]1[C@H](C(C)(C)C)[C@@H](C(=O)O)N(C(=O)[C@H]2CCCCO2)[C@H]1c1cccnc1OC(C)C", "note": "[Example 135, (2S,3R,4S,5S)-3-tert-butyl-4-[(5-cyclobutyl-2-methoxypyridin-3-yl)methoxy]-1-[(2R)-oxane-2-carbonyl]-5-{2-[(propan-2-yl)oxy]pyridin-3-yl}pyrrolidine-2-carboxylic acid]", "values": [
      {"measurement": "EC50", "setting": "[1]", "result": "1 to 10", "unit": "µM"},
      {"measurement": "EC50", "setting": "[2]", "result": "< 1", "unit": "µM"},
      {"measurement": "Maximum % activity (with co-corrector)", "result": "+++ (≥350)"},
      {"measurement": "Maximum % activity (without co-corrector)", "result": "++ (≥100 and <200)"}
    ]},
    {"molecule": "COc1ncc(C2CCC2)cc1CO[C@H]1[C@H](C(C)(C)C)[C@@H](C(=O)O)N(C(=O)[C@@H]2CCCCO2)[C@H]1c1cccnc1OC(C)C", "note": "[Example 136, (2S,3R,4S,5S)-3-tert-butyl-4-[(5-cyclobutyl-2-methoxypyridin-3-yl)methoxy]-1-[(2S)-oxane-2-carbonyl]-5-{2-[(propan-2-yl)oxy]pyridin-3-yl}pyrrolidine-2-carboxylic acid]", "values": [
      {"measurement": "EC50", "setting": "[1]", "result": "< 1", "unit": "µM"},
      {"measurement": "EC50", "setting": "[2]", "result": "< 1", "unit": "µM"},
      {"measurement": "Maximum % activity (with co-corrector)", "result": "+++ (≥350)"},
      {"measurement": "Maximum % activity (without co-corrector)", "result": "++ (≥100 and <200)"}
    ]},
    {"molecule": "COc1nc2ccccc2cc1CO[C@H]1[C@H](C(C)(C)C)[C@@H](C(=O)O)N(C(=O)OC(C)C)[C@H]1c1ccccc1Br", "note": "[Example 137, (2S,3R,4S,5S)-5-(2-bromophenyl)-3-tert-butyl-4-[(2-methoxyquinolin-3-yl)methoxy]-1-{[(propan-2-yl)oxy]carbonyl}pyrrolidine-2-carboxylic acid]", "values": [
      {"measurement": "EC50", "setting": "[1]", "result": "1 to 10", "unit": "µM"},
      {"measurement": "EC50", "setting": "[2]", "result": "< 1", "unit": "µM"},
      {"measurement": "Maximum % activity (with co-corrector)", "result": "++ (≥150 and <350)"},
      {"measurement": "Maximum % activity (without co-corrector)", "result": "++ (≥100 and <200)"}
    ]},
    {"molecule": "COc1ncc(C2CCC2)cc1CO[C@H]1[C@H](C(C)(C)C)[C@@H](C(=O)O)N(C(=O)OC(C)C)[C@H]1c1ccccc1Br", "note": "[Example 138, (2S,3R,4S,5S)-5-(2-bromophenyl)-3-tert-butyl-4-[(5-cyclobutyl-2-methoxypyridin-3-yl)methoxy]-1-{[(propan-2-yl)oxy]carbonyl}pyrrolidine-2-carboxylic acid]", "values": [
      {"measurement": "EC50", "setting": "[1]", "result": "< 1", "unit": "µM"},
      {"measurement": "EC50", "setting": "[2]", "result": "< 1", "unit": "µM"},
      {"measurement": "Maximum % activity (with co-corrector)", "result": "+++ (≥350)"},
      {"measurement": "Maximum % activity (without co-corrector)", "result": "++ (≥100 and <200)"}
    ]}
  ]
}
